Assay results published in patent US6680327B2, “Crystalline form VII of cabergoline” (Pharmacia Italia SpA, priority 2000, dated 2004).

Experiments:
[1] = thermodynamic stability of cabergoline polymorphs; assay type: physicochemical
Experimental: It can be readily prepared by slurry of form I or mixture of form I and VII in a solvent at a temperature over 30° C. The importance of cabergoline form VII rests primarily (but not exclusively) in thermodynamic stability.
The present invention also provides a process for producing crystalline cabergoline Form VII by subjecting crystals of form I or a mixture of crystals form I and VII to a slurry procedure at a temperature over 30° C. Preferably, the process comprises suspending crystals of form I or a mixture of crystals form I and VII in an organic solvent, such as n-heptane, diethyl ether, or n-hexane, at a temperature of from +30° to +80° C., more preferably about 55° C. The resultant suspension is then stirred at this temperature for about from 24 to 120 hours, more preferably for about 48 hours.

prolactine = test: inhibitory effect with regard prolactine; conditions: statement in words, no test described

SMILES: C=CCN1C[C@H](C(=O)N(CCCN(C)C)C(=O)NCC)C[C@@H]2c3cccc4[nH]cc(c34)C[C@H]21 [Form VII, 1((6-allylergolin-8beta-yl)-carbonyl)-1-(3-dimethylaminopropyl)-3-ethylurea]
- stability with respect to form I ([1]; compared with form I): greater stability
- thermodynamic stability of the polymorph ([1]; range of temperature between +30° and +80° C.): thermodynamically most stable polymorph
- inhibitory effect with regard prolactine (prolactine): significant inhibitory effect
